From patent EP2380890A1, “New 7,8-dihydro-1,6-naphthyridin-5(6h)-one-derivatives as PDE4 inhibitors” (Almirall, S.A., priority 2010, dated 2011) come the findings set out here.

This test deals with PDE4. As to the kind of experiment: PDE4 assay: [3H] cAMP Scintillation Proximity Assay (SPA) of phosphodiesterase activity. The format is biochemical. The conditions noted are these: yeast extract of recombinant PDE4 enzyme, 30 nM [3H] cAMP, 1 h at room temperature, pH 7.5. As to the method: Measurement of Phosphodiesterase Activity was done using a [3H] cAMP Scintillation Proximity Assay (SPA) (GE Healthcare). Compounds to be tested were disolved in DMSO at a stock concentration of 1mM and serial dilutions were prepared in 50% DMSO to determine IC50s.
The reactions were conducted in 96-well plates (Corning, Ref.3604) at room temperature, in 0.1 mL of reaction buffer containing (final concentrations): 50 mM Tris-HCl, pH 7.5, 8.3 mM MgCl2, 1.7 mM EGTA, 30 nM [3H] cAMP (approximately 150000 dpm/well) with or without the inhibitors. The reaction was initiated by adding yeast extract of recombinant PDE4 enzyme.
Plates were shaken for 1 h at room temperature and the incubation was terminated by adding 50 µL (0.5 mg /well) of SPA ytrium silicate beads (RPNQ 0150; GE Healthcare) in the presence of zinc sulfate. Plates were stored overnight in the dark and read on a TRILUX microtiter plate reader (Perkin Elmer).
A general note: Scintillation proximity formats need no separation of bound from free tracer.
By IC50 is commonly meant the midpoint of a concentration-inhibition curve. In the case of `COc1cccc(Nc2cc(-c3ccccc3)nc3c2C(=O)NCC3)c1` [Example 1, 4-[(3-Methoxyphenyl)amino]-2-phenyl-7,8-dihydro-1,6-naphthyridin-5(6H)-one], the IC50 came to 1.6 nM. Under `O=C1NCCc2nc(-c3ccccc3)cc(Nc3ccc(CCO)cc3)c21` [Example 2, 4-{[4-(2-Hydroxyethyl)phenyl]amino}-2-phenyl-7,8-dihydro-1,6-naphthyridin-5(6H)-one] stands 12 nM; under `COc1cccc(Nc2cc(-c3cccc(OC)c3)nc3c2C(=O)NCC3)c1` [Example 8, 2-(3-Methoxyphenyl)-4-[(3-methoxyphenyl)amino]-7,8-dihydro-1,6-naphthyridin-5(6H)-one], 8 nM. Take `COc1cccc(Nc2cc(-c3ccccc3OC)nc3c2C(=O)NCC3)c1` [Example 9, 2-(2-Methoxyphenyl)-4-[(3-methoxyphenyl)amino]-7,8-dihydro-1,6-naphthyridin-5(6H)-one]: the half-inhibitory concentration (IC50) is 32 nM.

Take `COc1cccc(Nc2cc(-c3cccc(-c4cccc(C(N)=O)c4)c3)nc3c2C(=O)NCC3)c1` [Example 12, 3'-{4-[(3-Methoxyphenyl)amino]-5-oxo-5,6,7,8-tetrahydro-1,6-naphthyridin-2-yl}biphenyl-3-carboxamide]: the IC50 was 0.28 nM. As for `COc1cccc(Nc2cc(-c3cccc(-c4ccc(C(=O)O)cc4)c3)nc3c2C(=O)NCC3)c1` [Example 13, 3'-{4-[(3-Methoxyphenyl)amino]-5-oxo-5,6,7,8-tetrahydro-1,6-naphthyridin-2-yl}biphenyl-4-carboxylic acid], the IC50 worked out at 0.34 nM. Under `COc1cccc(Nc2cc(-c3cccc(-c4cccc(C(=O)NCCN(C)C)c4)c3)nc3c2C(=O)NCC3)c1` [Example 14, N-[2-(Dimethylamino)ethyl]-3'-{4-[(3-methoxyphenyl)amino]-5-oxo-5,6,7,8-tetrahydro-1,6-naphthyridin-2-yl}biphenyl-3-carboxamide] stands 0.23 nM. Under `COc1cccc(Nc2cc(-c3cccc(Sc4cccc(OC)c4)c3)nc3c2C(=O)NCC3)c1` [Example 16, 4-[(3-Methoxyphenyl)amino]-2-{3-[(3-methoxyphenyl)thio]phenyl}-7,8-dihydro-1,6-naphthyridin-5(6H)-one] stands 1.6 nM. Turning to `O=C1NCCc2nc(-c3ccccc3)cc(NCc3ccncc3)c21` [Example 17, 2-Phenyl-4-[(pyridin-4-ylmethyl)amino]-7,8-dihydro-1,6-naphthyridin-5(6H)-one], the IC50 was 25 nM. In the case of `NC(=O)c1ccc(Nc2cc(-c3ccccc3)nc3c2C(=O)NCC3)cc1` [Example 18, 4-[(5-Oxo-2-phenyl-5,6,7,8-tetrahydro-1,6-naphthyridin-4-yl)amino]benzamide], the IC50 worked out at 1.5 nM.

For the compound `COc1cc(Nc2cc(-c3ccccc3)nc3c2C(=O)NCC3)ccc1C(=O)O` [Example 19, 2-Methoxy-4-[(5-oxo-2-phenyl-5,6,7,8-tetrahydro-1,6-naphthyridin-4-yl)amino]benzoic acid], the IC50 stood at 2.3 nM. As to `COc1cccc(Nc2cc(-c3ccncc3)nc3c2C(=O)NCC3)c1` [Example 22, 4-[(3-Methoxyphenyl)amino]-2-pyridin-4-yl-7,8-dihydro-1,6-naphthyridin-5(6H)-one], the IC50 was found to be 3.6 nM. As for `O=C1NCCc2nc(-c3ccccc3)cc(Nc3cccc4ncccc34)c21` [Example 24, 2-Phenyl-4-(quinolin-5-ylamino)-7,8-dihydro-1,6-naphthyridin-5(6H)-one], the IC50 came out at 0.96 nM. With `O=C(O)c1ccc(Nc2cc(-c3ccccc3)nc3c2C(=O)NCC3)cc1` [Example 25, 4-[(5-Oxo-2-phenyl-5,6,7,8-tetrahydro-1,6-naphthyridin-4-yl)amino]benzoic acid], the IC50 came out at 9 nM.

Turning to `COc1cccc(Nc2cc(-c3ccccc3)nc3c2C(=O)NC(C)C3)c1` (stereo not drawn) [Example 26, 4-[(3-Methoxyphenyl)amino]-7-methyl-2-phenyl-7,8-dihydro-1,6-naphthyridin-5(6H)-one], the IC50 turned out to be 117 nM.

Regarding `COc1cccc(Nc2nc(-c3ccccc3)nc3c2C(=O)NCC3)c1` [Example 32, 4-[(3-Methoxyphenyl)amino]-2-phenyl-7,8-dihydropyrido[4,3-d]pyrimidin-5(6H)-one], the IC50 is 52 nM. Under `COc1cccc(Nc2cc(C3CC3)nc3c2C(=O)NCC3)c1` [Example 33, 2-Cyclopropyl-4-[(3-methoxyphenyl)amino]-7,8-dihydro-1,6-naphthyridin-5(6H)-one] stands 9 nM; under `COc1cccc(Nc2cc(-c3cccc(-c4cc(C(=O)O)ccc4Cl)c3)nc3c2C(=O)NCC3)c1` [Example 35, 6-Chloro-3'-{4-[(3-methoxyphenyl)amino]-5-oxo-5,6,7,8-tetrahydro-1,6-naphthyridin-2-yl}biphenyl-3-carboxylic acid], 0.81 nM; under `O=C1NCCc2nc(-c3ccccc3)cc(Nc3cccc4cnccc34)c21` [Example 37, 4-(Isoquinolin-5-ylamino)-2-phenyl-7,8-dihydro-1,6-naphthyridin-5(6H)-one], 14 nM. `O=C1NCCc2nc(-c3ccccc3)cc(Nc3ccc4ncccc4c3)c21` [Example 38, 2-Phenyl-4-(quinolin-6-ylamino)-7,8-dihydro-1,6-naphthyridin-5(6H)-one]: the IC50 was determined as 2.3 nM. Under `O=C1NCCc2nc(-c3ccccc3)cc(Nc3n[nH]c4ncccc34)c21` [Example 41, 2-Phenyl-4-(1H-pyrazolo[3,4-b]pyridin-3-ylamino)-7,8-dihydro-1,6-naphthyridin-5(6H)-one] stands 6 nM. For `COc1cccc(Nc2cc(-c3cccc(-c4cc(C(=O)O)ccc4O)c3)nc3c2C(=O)NCC3)c1` [Example 43, 6-Hydroxy-3'-{4-[(3-methoxyphenyl)amino]-5-oxo-5,6,7,8-tetrahydro-1,6-naphthyridin-2-yl}biphenyl-3-carboxylic acid], the IC50 stood at 10 nM. On to `COc1cccc(Nc2cc(-c3ccccc3)nc3c2C(=O)NCC3C)c1` (stereo not drawn) [Example 44, 4-[(3-Methoxyphenyl)amino]-8-methyl-2-phenyl-7,8-dihydro-1,6-naphthyridin-5(6H)-one], for which the IC50 came out at 640 nM. To `O=C1NCCc2nc(-c3ccccc3)cc(Nc3ccc(C[C@@H](O)CO)cc3)c21` [Example 47, 4-({4-[(2R)-2,3-dihydroxypropyl]phenyl}amino)-2-phenyl-7,8-dihydro-1,6-naphthyridin-5(6H)-one] belongs 9 nM; to `O=C(NC1CC1)c1cccc(-c2cccc(-c3cc(Nc4cccc5ncccc45)c4c(n3)CCNC4=O)c2)c1` [Example 49, N-Cyclopropyl-3'-[5-oxo-4-(quinolin-5-ylamino)-5,6,7,8-tetrahydro-1,6-naphthyridin-2-yl]biphenyl-3-carboxamide], 0.17 nM. To `O=C1NCCc2nc(-c3ccccc3)cc(Nc3cccc4c3ccc[n+]4[O-])c21` [Example 51, 4-[(1-Oxidoquinolin-5-yl)amino]-2-phenyl-7,8-dihydro-1,6-naphthyridin-5(6H)-one] belongs 0.43 nM; to `O=C(NC1CC1)c1cccc(-c2cccc(-c3cc(Nc4cccc5c4ccc[n+]5[O-])c4c(n3)CCNC4=O)c2)c1` [Example 56, N-Cyclopropyl-3'-{4-[(1-oxidoquinolin-5-yl)amino]-5-oxo-5,6,7,8-tetrahydro-1,6-naphthyridin-2-yl}biphenyl-3-carboxamide], 0.05 nM; to `N#C/N=C1\NCCc2nc(-c3ccc(F)c(F)c3)cc(Nc3cccc4ncccc34)c21` [Example 57, [(5Z)-2-(3,4-Difluorophenyl)-4-(quinolin-5-ylamino)-7,8-dihydro-1,6-naphthyridin-5(6H)-ylidene]cyanamide], 0.9 nM. Under `CN(C)CCCNC(=O)c1cccc(-c2cccc(-c3cc(Nc4cccc5ncccc45)c4c(n3)CCNC4=O)c2)c1` [Example 59, N-[3-(Dimethylamino)propyl]-3'-[5-oxo-4-(quinolin-5-ylamino)-5,6,7,8-tetrahydro-1,6-naphthyridin-2-yl]biphenyl-3-carboxamide] stands 0.105 nM; under `Cc1c(F)cc(C(=O)NC2CC2)cc1-c1cccc(-c2cc(Nc3cccc4ncccc34)c3c(n2)CCNC3=O)c1` [Example 61, N-Cyclopropyl-5-fluoro-6-methyl-3'-[5-oxo-4-(quinolin-5-ylamino)-5,6,7,8-tetrahydro-1,6-naphthyridin-2-yl]biphenyl-3-carboxamide], 0.05 nM.
